Test results as given in patent US6969763B1, “Molecular interaction sites of interleukin-2 RNA and methods of modulating the same” (priority 1999, dated 2005).
Values after ≈ are worked out from the molar mass of the structure shown. Where two headings read alike, the source gives them in different places.

Tests used:
TAR RNA / tat peptide = assay: disruption of TAR RNA interaction with tat peptide; format: binding, HIV
[1] = test system: HIV TAR RNA structure in the 5'-UTR of luciferase mRNA; assay: wheat germ lysate translation of luciferase mRNA containing the TAR RNA structure in the 5'-UTR; format: biochemical
Description: It is believed that stabilization of mRNA structures near the 5′-cap also could be effected by specific “small” molecules, and that such binding would reduce the translational efficiency of the mRNA. To test this hypothesis, a plasmid was constructed containing the luciferase message behind a 5′-UTR containing a 27-mer RNA construct of the HIV TAR stem-loop bulge whose structure had been determined by NMR. The resulting mRNA could be expressed and capped in a wheat germ lysate translation system supplemented with T7 polymerase following addition of m^7G to the lysate (see, FIG. 38A). Insertion of a 9-base leader before the TAR structure (HIVluc+9) enhanced the translational efficiency, presumably by allowing the pre-initiation complex to form. The helicase activity associated with the pre-initiation complex can transiently melt out the TAR RNA structure, and the message is translated (see, FIG. 38A).

luciferase mRNA = assay: wheat germ lysate translation of control luciferase mRNA (luc+9); format: biochemical; conditions: in words
Description: It is believed that stabilization of mRNA structures near the 5′-cap also could be effected by specific “small” molecules, and that such binding would reduce the translational efficiency of the mRNA. To test this hypothesis, a plasmid was constructed containing the luciferase message behind a 5′-UTR containing a 27-mer RNA construct of the HIV TAR stem-loop bulge whose structure had been determined by NMR.

TAR = conditions: in words, assay not described
E. coli = assay: high throughput screening assay for antibacterial activity (MIC); format: cell-based; conditions: Escherichia coli, read-out: minimum inhibitory concentrations (MIC's)
Description: This activity was verified by manual solution synthesis of analytically pure material as described in Example 6 above, which had identical activity.

[2] = target: 16S rRNA A-site 27-mer RNA model; assay: ESI-FTICR mass spectrometry (MASS) binding to 16S A-site 27-mer RNA model; set-up: species or system prokaryotic; conditions: for Kd: 16S A site 27mer, read-out: MS-measured dissociation constant (KD); for complex formation with 16S A site RNA: aminoglycosides 500 nM each, in words
Description: (§1) The ESI-FTICR mass spectrum depicted in FIG. 70 was acquired from a […] mixture of untagged 16S and tagged 18S in the presence of an equimolar mixture of five aminoglycosides. It is to be understood that other biomolecules may be used in place of the aminoglycosides. The aminoglycosides have been selected from two classes of 2-deoxystreptamines: 4,5-disubstituted (paromomycin, and lividomycin), and 4,6-disubstituted (tobramycin, sisomicin, and bekanamycin), present at 500 nM each. Complexes corresponding to 1:1 binding of individual aminoglycosides were observed between 16S and all members of the aminoglycoside mixture, with the apparent affinities estimated from the abundances of the respective complexes differing substantially. Signal intensities from the complexes with paromomycin (m/z 1925.572) and lividomycin (m/z 1954.790) are consistent with MS-measured dissociation constants of 110 nM and 28 nM, respectively. The intensities of 16S complexes with tobramycin (m/z 1895.960), bekanamycin (m/z 1899.171), and sisomicin (m/z 1891.972) were reduced, consistent with solution dissociation constants of […]. Wang, et al., Biochemistry, 1997, 36, 768-779. […] The spectrum is calibrated using multiple isotope peaks of the (M−5H^+)^5- and (M−4H^+)^4- charge states of the free RNA as internal mass standards which brackets the m/z range in which complexes are observed. The average mass measurement error obtained for the complexes in FIG. 70 is 2.1 ppm when m/z differences are measured between the most abundant (4 ^13C) isotope peak of 16S and each complex. This post calibration scheme is easily automated which enables rapid, high precision mass measurements of affinity selected ligands against multiple targets in a high throughput mode.
ESI-MS measurements of a solution containing a fixed concentration of RNA at different concentrations of ligand were obtained. By measuring the ratio of bound:unbound RNA at varying ligand concentrations, the Kd was determined by 1/slope of the “titration curve”. The MS derived value of 110 nM is in good agreement with previously reported literature value of 200 nM.
Paromomycin, lividomycin (MW=761.354 Da), sisomicin (MW=447.269 Da), tobramycin (MW=467.2591 Da), and bekanamycin (MW=483.254 Da) were obtained from Sigma (St. Louis, Mo.) and ICN (Costa Mesa, Calif.) and were dissolved to generate 10 mM stock solutions. 2′ methoxy analogs of RNA constructs representing the prokaryotic (16S).rRNA and eukaryotic (18S) rRNA A-site (FIG. 68) were synthesized in house and precipitated twice from 1 M ammonium acetate following deprotection with ammonia (pH 8.5). The mass-tagged constructs contained an 18-atom mass tag (C12H25O9) attached to the 5′-terminus of the RNA oligomer through a phosphodiester linkage.
All mass spectrometry experiments were performed using an Apex 11 70e electrospray ionization Fourier transform ion cyclotron resonance mass spectrometer (Bruker Daltonics, Billerica) employing an actively shielded 7 tesla superconducting magnet. RNA solutions were prepared in 50 mM NH4OAc (pH 7), mixed 1: v:v with isopropanol to aid desolvation, and infused at a rate of […] using a syringe pump. Ions were formed in a modified electrospray source (Analytica, Branford) employing an off axis, grounded electrospray probe positioned ca. 1.5 cm from the metalized terminus of the glass desolvation capillary biased at 5000 V. A counter-current flow of dry oxygen gas heated to 225° C. was employed to assist in the desolvation process. Ions were accumulated in an external ion reservoir comprised of an RF-only hexapole, a skimmer cone, and an auxiliary electrode for 1000 ms prior to transfer into the trapped ion cell for mass analysis. Each spectrum was the result of the coaddition of 16 transients comprised of 256 datapoints acquired over a 90,909 kHz bandwidth resulting in a 700 ms detection interval. […]

[3] = test system: 18S rRNA A-site 27-mer RNA model; assay: ESI-FTICR mass spectrometry binding to mass-tagged 18S A-site 27-mer RNA model; set-up: species or system eukaryotic; conditions: aminoglycosides 500 nM each, in words
Description: as §1, with “The” for “The spectrum is calibrated using multiple isotope peaks of the (M−5H^+)^5- and (M−4H^+)^4- charge states of the free RNA as internal mass standards which brackets the m/z range in which complexes are observed. The”, “This post calibration scheme is easily automated which enables rapid, high precision mass measurements of affinity selected ligands against multiple targets in a high throughput mode.” left out

[4] = target: 27-mer model RNA sequence of the 16S A-site; assay: MASS assay with the 27-mer model RNA sequence of the 16S A-site (Table 6); format: binding; conditions: 27-mer model RNA of the 16S A-site
Description: (§2) The compounds are screened for binding affinity using MASS or conventional high-throughput functional screens. […] The MASS assay was performed with the 27-mer model RNA sequence of the 16S A-site whose NMR structure has been determined. The transcription/translation assay was based on expression of a luciferase plasmid.
(§3) Paromomycin is an aminoglycoside antibiotic known to bind to the A-site RNA structure. The NMR structure was determined with paromomycin bound at the A-site.

[5] = test system: translation of a luciferase plasmid; assay: transcription/translation assay based on expression of a luciferase plasmid; format: biochemical; conditions: inhibition of translation of a luciferase plasmid
Description: as §2, §3

[6] = target: decoding region of the prokaryotic 16S rRNA (the A-site); conditions: 16S A-site, read-out: solution dissociation constant (literature), cited from earlier work

SMILES: CNc1ccc(NCCO)c2c1C(=O)c1ccccc1C2=O [ACD 00001199]
- concentration disrupting the TAR RNA interaction with tat peptide (TAR RNA / tat peptide): 1 µM
- inhibition of translation of luciferase mRNA containing TAR RNA structure ([1]; in words): dose-dependent inhibition of translation
- IC50 ([1]; luciferase mRNA containing the TAR RNA structure in the 5'-UTR, read-out: concentration reducing translation by 50%): 50 µM
- inhibition of translation of the luciferase mRNA (control) (luciferase mRNA): some inhibition of translation at very high concentrations
- IC5, values (TAR): low

SMILES: O=C(NO)[C@@H](Cc1ccc2ccccc2c1)NS(=O)(=O)c1ccc2ccccc2c1 [Compound 5-n-ii, (2R)-3-(2-naphthyl)-2-((2-naphthylsulfonyl)amino)propanehydroxamic acid]
- MIC (E. coli): 0.7 to 1.5 µM (≈ 0.294 to 0.631 µg/mL)

SMILES: O=C(NO)[C@@H](Cc1ccc2ccccc2c1)NS(=O)(=O)c1ccc(Br)cc1 [Compound 5n-vi, (2R)-2-(((4-bromophenyl)sulfonyl)amino)-3-(2-naphthyl)propanehydroxamic acid]
- MIC (E. coli): 3 to 6 µM (≈ 1.35 to 2.7 µg/mL)

SMILES: NC[C@@H]1O[C@H](O[C@H]2[C@@H](O)[C@H](O[C@@H]3[C@@H](O)[C@H](N)C[C@H](N)[C@H]3O[C@H]3O[C@H](CO)[C@@H](O)[C@H](O)[C@H]3N)O[C@@H]2CO)[C@H](N)[C@@H](O)[C@@H]1O [Paromomycin]
- Kd [2]: 0.11 µM
- complex formation with 16S A site RNA [2]: High affinity complexes
- complex formation with 18S A site RNA [3]: complete absence of complexes
- Kd [4]: 0.5 µM
- Activity^1 [5]: 0.3 µM
- Kd ([6]; listed as paromomycin): 0.2 µM
- Kd [6]: ~0.2 µM

SMILES: NC[C@H]1O[C@H](O[C@H]2[C@H](O)[C@@H](O[C@H]3O[C@H](CO)[C@@H](O)[C@H](N)[C@H]3O)[C@H](N)C[C@@H]2N)[C@H](N)[C@@H](O)[C@@H]1O [bekanamycin]
- complex formation with 16S A site RNA [2]: Weaker complexes

SMILES: NC[C@@H]1O[C@H](O[C@H]2[C@@H](O)[C@H](O[C@@H]3[C@@H](O)[C@H](N)C[C@H](N)[C@H]3O[C@H]3O[C@H](CO)[C@@H](O)C[C@H]3N)O[C@@H]2CO)[C@H](N)[C@@H](O)[C@@H]1O[C@H]1O[C@H](CO)[C@@H](O)[C@H](O)[C@@H]1O [lividomycin]
- enhancement of binding affinity for 16S relative to paromomycin [2]: ~4 fold
- Kd [2]: 0.028 µM
- complex formation with 16S A site RNA [2]: High affinity complexes
- complex formation with 18S A site RNA [3]: complete absence of complexes

SMILES: CN[C@@H]1[C@@H](O)[C@@H](O[C@@H]2[C@@H](O)[C@H](O[C@H]3OC(CN)=CC[C@H]3N)[C@@H](N)C[C@H]2N)OC[C@]1(C)O [sisomicin]
- complex formation with 16S A site RNA [2]: Weaker complexes

SMILES: NC[C@H]1O[C@H](O[C@H]2[C@H](O)[C@@H](O[C@H]3O[C@H](CO)[C@@H](O)[C@H](N)[C@H]3O)[C@H](N)C[C@@H]2N)[C@H](N)C[C@@H]1O [tobramycin]
- complex formation with 16S A site RNA [2]: Weaker complexes
